The source of these data is PMC9963438, “Emerging Effects of Resveratrol Derivatives in Cells Involved in Oral Wound Healing: A Preliminary Study” (International Journal of Molecular Sciences, 2023).

Series [1] relates to human gingival fibroblasts (HGFs). Kind of series: MTT cytocompatibility screening on HGFs, 24 h. The note with it: for HGFs metabolic activity / cell viability (MTT): 10 µM, vs control (DMSO) and RSV; for HGFs cell viability (MTT): vs control and RSV. The format is cell-based.
For another series, the system named is HGFs. Put plainly: Toluidine blue staining, morphology and confluence of HGFs. The format is cell-based, human. The note with it: 72 h; 1d and 1h 5 µM, RSV 10 µM. As for the experimental part: The influence of 1d and 1h was evaluated on cells density and morphology by toluidine-blue staining. A total of 2 × 10^4 cells/well were cultured in 24-well plates and were incubated at 37 °C and 5% CO2 with tested compounds at 5 µM. After 48 and 72 h, adherent cells were fixed with 70% cold ethanol and stained with 1% toluidine blue and 1% borax (Sigma Aldrich, St. Louis, MO, USA). Cells were then observed by an inverted microscope connected with a camera at 40×, 100×, and 200× magnifications (Leica, Wild Heer-brugg, Wetzlar, Germany).

A further series concerns eNOS mRNA in HUVECs. Kind of series: RT-qPCR of eNOS in HUVECs. Format: cell-based, human. The note with it: RSV 10 µM, 48 and 72 h, time-dependent manner. The procedure:
Total RNA was isolated using Trifast reagent (EuroClone) according to the manufacturer instructions from 3 × 10^5 cells/well treated with increasing concentrations of 1d and 1h for 48 h and 72 h. Complementary DNA (cDNA) was obtained using GoTaq® 2 Step RT-qPCR Kit (Promega, Madison, WI, USA) in accordance with the manufacturer’s instructions. RT-qPCR was carried out using SYBR Green (Promega) on the Quant Studio 7 Pro Real-Time PCR System (ThermoFisher, Waltham, MA, USA). The results were normalized to glyceraldehyde 3-phoshate dehydrogenase (GAPDH) for HUVECs and HGFs and to β-actin (βACT) for HOBs using the 2^−ΔΔCt method.

Turning to `N#Cc1ccc(S(=O)(=O)Nc2ccc(/C=C/c3ccccc3)cc2)cc1` [1e], the “HGFs metabolic activity / cell viability (MTT)” value in series [1] is “significantly decreased the HGFs metabolic activity”. Besides, the figures for the “HGFs cell viability (MTT)” value in series [1] (20 µM) and in series [1] (50 µM) were “statistically significant reduction in cell viability” and “statistically reduce HGF viability”, respectively.
Consider `Cc1ccc(S(=O)(=O)Nc2ccc(/C=C/c3ccccc3)cc2)cc1[N+](=O)[O-]` [1c], for which the “HGFs metabolic activity / cell viability (MTT)” value in series [1] is “did not show any significant difference”. The “HGFs cell viability (MTT)” value in series [1] (50 µM) is on record as “statistically reduce HGF viability”.
With `Oc1ccc(/C=C/c2cc(O)cc(O)c2)cc1` [RSV, trans-3,5,4′-trihydroxystilbene, reference compound], the HGFs morphology result with HGFs is “appeared as irregular triangles, polygons, and other shapes”. Also, the “eNOS mRNA expression” value with eNOS mRNA in HUVECs was “induced eNOS mRNA expression”.
In the case of `COc1cc(OC)cc(S(=O)(=O)Nc2ccc(/C=C/c3ccccc3)cc2)c1` [1f], in series [1], the “HGFs metabolic activity / cell viability (MTT)” value is recorded as “significantly decreased the HGFs metabolic activity”. Further, the “HGFs cell viability (MTT)” value in series [1] (50 µM) is reported as “statistically reduce HGF viability”.
Turning to `O=[N+]([O-])c1cccc(S(=O)(=O)Nc2ccc(/C=C/c3ccccc3)cc2)c1` [1b], the “HGFs metabolic activity / cell viability (MTT)” value in series [1] is listed as “significantly decreased the HGFs metabolic activity”. In addition, the “HGFs cell viability (MTT)” value in series [1] (50 µM) is recorded as “statistically reduce HGF viability”.
As to `CS(=O)(=O)Nc1ccc(/C=C/c2ccccc2)cc1` [1g], the “HGFs metabolic activity / cell viability (MTT)” value in series [1] is given as “significantly decreased the HGFs metabolic activity”. Also, the “HGFs cell viability (MTT)” value in series [1] (20 µM) is listed as “statistically significant reduction in cell viability”; in series [1] (50 µM) it was “statistically reduce HGF viability”.
For `O=S(=O)(Nc1ccc(/C=C/c2ccccc2)cc1)c1ccccc1` [1a], in that order: “did not show any significant difference”, “slight increase in HGF viability” and “no statistically significant differences”.
For `O=S(=O)(Cc1ccccc1)Nc1ccc(/C=C/c2ccccc2)cc1` [1i], the “HGFs metabolic activity / cell viability (MTT)” value in series [1] was “did not show any significant difference”. Moreover, the “HGFs cell viability (MTT)” value is on record as “statistically significant reduction in cell viability” in series [1] (20 µM) and “statistically reduce HGF viability” in series [1] (50 µM).
